Source: patent publication US20250250251A1, “PIPERIDINYLPYRIDINYLCARBONITRILE DERIVATIVES AS INHIBITORS OF GLUTAMINYL-PEPTIDE CYCLOTRANSFERASE AND GLUTAMINYL-PEPTIDE CYCLOTRANSFERASE LIKE PROTEIN” (Boehringer Ingelheim International GmbH, priority 2024, published 2025)
pIC50: −log10 of the molar value. Like-named read-outs stand apart in the source and are kept apart here.

Tests used:
[1] = tested on: SIRPα signalling induced by Raji cells; assay: Assay B: SIRPα signalling assay using Raji cells; assay type: cell-based; settings: Homo sapiens, read-out: Inhibition of SIRPα signalling induced by Raji cells: IC50
Method: Bioassay reagent 1 of the PathHunter Bioassay detection kit (DiscoverX 93-0001) was added to each well of the plate using a multichannel pipette followed by a 15 min incubation at room temperature. Afterwards bioassay reagent 2 was added followed by 60 min incubation at room temperature (incubation in the dark).
The analysis of the data was performed using the luminescence signal generated by beta-galactosidase in the PathHunter reporter cell line. The luminescence measurement was done using a Pherastar Multi-Mode Reader.

QPCT = molecular target: T1, QPCT (Homo sapiens, UniProt Q16769); assay: Assay A: biochemical QPCT activity assay (MALDI-TOF MS, CD47 peptide substrate); settings: read-out: Inhibition of QPCT: IC50
T1 construct: purchased Origine (OriGene) TP700028
Method: (§1) QPCT or QPCTL dependent conversion of N-terminal glutamine to pyroglutamate of CD47 was monitored via MALDI-TOF MS. Test compounds were dissolved in 100% DMSO and serially diluted into clear 1,536-well microtiter plates. Enzymatic reactions were set up in assay buffer containing 20 mM Tris pH 7.5, 0.1 mM TCEP, 0.01% BSA, and 0.001% Tween20. […] The plates were incubated for 10 min in a humidified incubator at 24° C. Subsequently, 2.5 μL of CD47 peptide substrate surrogate (^19[…]^33) was added to each well (final concentration: 10 μM for QPCTL/20 μM for QPCT). The plates were mixed for 30 sec at 1,000 rpm and subsequently incubated for 40 min in a humidified incubator at 24° C. […] The plates were sealed with an adhesive foil, mixed for 30 s at 1,000 rpm and stored at room temperature until preparation of the MALDI target plates. MALDI target plates were prepared as described previously. […] QPCT or QPCTL activity was monitored by calculating the ratio between product and internal standard signals followed by normalization to high (100% activity) and low (0% activity) controls. Determination of compound potencies was obtained by fitting the dose-response data to a four-parameter logistical equation.

QPCTL = molecular target: T2, QPCTL (Homo sapiens, UniProt Q9NXS2); assay: Assay A: biochemical QPCTL activity assay (MALDI-TOF MS, CD47 peptide substrate); settings: read-out: Inhibition of QPCTL: IC50
T2 construct: made in house
Method: as §1

[2] = tested on: SIRPα signalling induced by A549 cells; assay: Assay B: SIRPα signalling assay using A549 cells; assay type: cell-based; settings: Homo sapiens, read-out: Inhibition of SIRPα signalling induced by A549 cells: IC50
Method: Two cell types are independently used: the Raji cell line (lymphoblast-like human cell line derived from B lymphocytes from a Burkitt's lymphoma patient in 1963) and A549 cells (adenocarcinoma human alveolar basal epithelial cells).
Test compounds were dissolved in 100% DMSO and serially diluted into a white 384-well microtiter cell culture plate (PerkinElmer #60076780 in case of Raji assay; PDL-coated plates Greiner #781945 in case of A549 assay). 5000 Raji cells (ATCC #CC86) or 5000 A549 cells (ATCC #CCL-185) in Assay Complete Cell Plating reagent 30 (DiscoverX 93-0563R30B) were added per well. The assay plate was incubated for 48 h at 37° C., 95% humidity and 5% CO2. 15000 reporter cells (Jurkat PathHunter SIRPαV1, DiscoverX #93-1135C19) were added to each well, and the plate was incubated for 5 h at 37° C., 95% humidity and 5% CO2. Bioassay reagent 1 of the PathHunter Bioassay detection kit (DiscoverX 93-0001) was added to each well of the plate using a multichannel pipette followed by a 15 min incubation at room temperature. Afterwards bioassay reagent 2 was added followed by 60 min incubation at room temperature (incubation in the dark).
The analysis of the data was performed using the luminescence signal generated by beta-galactosidase in the PathHunter reporter cell line. The luminescence measurement was done using a Pherastar Multi-Mode Reader. Dose-response curves & IC50 data were calculated with 4-parameter sigmoidal dose response formula.

murine hepatocytes = assay: Assay E: stability in murine hepatocytes; assay type: in vitro ADME, mouse; settings: 1 μM, 5% species serum
Method: The metabolic degradation of the test compound is assayed in a murine hepatocyte suspension.
Murine hepatocytes (typically cryopreserved) are incubated in an appropriate buffer system (e.g. Dulbecco's modified eagle medium plus 3.5 μg glucagon/500 mL, 2.5 mg insulin/500 mL and 3.75 mg/500 mL hydrocortison) containing 5% species serum.
Following a (typically) 30 min preincubation in an incubator (37° C., 10% CO2) 5 μl of test compound solution (80 μM; from 2 mM in DMSO stock solution diluted 1:25 with medium) are added into 395 μl hepatocyte suspension (cell density in the range 0.25-5 Mio cells/mL, typically 1 Mio cells/mL; final concentration of test compound 1 μM, final DMSO concentration 0.05%).
The cells are incubated for six hours (incubator, orbital shaker) and samples (25 μl) are taken at 0, 0.5, 1, 2, 4 and 6 hours. Samples are transferred into acetonitrile and pelleted by centrifugation (5 min). The supernatant is transferred to a new 96-deepwell plate, evaporated under nitrogen and resuspended.
Decline of parent compound is analyzed by HPLC-MS/MS
CLint is calculated as follows CL_[…]=Dose/AUC=(C0/CD)/(AUD+clast/k)×1000/60. C0: initial concentration in the incubation [μM], CD: cell density of vital cells [10e6 cells/mL], AUD: area under the data [μM×h], clast: concentration of last data point [μM], k: slope of the regression line for parent decline [h−1].
The calculated in vitro hepatic intrinsic clearance can be scaled up to the intrinsic in vivo hepatic Clearance and used to predict hepatic in vivo blood clearance (CL) by the use of a liver model (well stirred model).
[formula] [formula] [formula] • Hepatocellularity, mouse: 120×10e6 cells/g liver • Liver factor, mouse: 55 g/kg bodyweight • Blood flow, mouse: 90 ml/(min×kg)

[3] = Assay C: permeability in CACO-2 cells; assay type: in vitro ADME; settings: human; for efflux ratio: read-out: Efflux Ratio
Method: Caco-2 cells (1-2×10^5 cells/1 cm^2 area) are seeded on filter inserts (Costar transwell polycarbonate or PET filters, 0.4 μm pore size) and cultured (DMEM) for 10 to 25 days. Compounds are dissolved in appropriate solvent (like DMSO, 1-20 mM stock solutions). […] The transport solution (TL) is applied to the apical or basolateral donor side for measuring A-B or B-A permeability (3 filter replicates), respectively. Samples are collected at the start and end of experiment from the donor and at various time intervals for up to 2 hours also from the receiver side for concentration measurement by HPLC-MS/MS or scintillation counting. Sampled receiver volumes are replaced with fresh receiver solution.
Efflux ratio (ER)=permeability B−A/permeability A−B

CYP3A4 mRNA = assay: Assay D: CYP induction screening assay in primary human hepatocytes; assay type: in vitro ADME; settings: 48 h
Method: Cryopreserved plateable human hepatocytes (single donor. BioIVT) were thawed and plated in Collagen-I coated 96-well-plates at a cell density of 0.07 million cells per well.
After a 6 h attachment period, the seeding medium was replaced by serum-free William's medium E supplemented with Matrigel (0.25 mg/ml) and allowed to recover overnight. 24 h post-seeding, serum-free Williams E medium containing the test compound at a final concentration of […] and a final DMSO content of 0.1% and 0.1% DMSO (solvent-treated control), respectively, was added to predefined wells. Exposure solutions were renewed after 24 h.
After 48 h of treatment in total, the effect of the test compounds on CYP3A4 mRNA expression was assessed using the QuantiGene Plex Gene Expression Assay. Hepatocytes were lysed and total RNA was extracted using the QuantiGene Sample Processing Kit according to the instructions of the manufacturer.
mRNA quantification was conducted using a customized QuantiGene Plex Panel to analyse CYP3A4 and the housekeeper genes RPL32, EIF4E2 and GUSB according to the instructions of the manufacturer and measured on a Luminex™ instrument. Signal was reported as median fluorescence intensity (MFI), which is proportional to the number of target RNA molecules present in the sample.
For calculation of CYP3A4 mRNA induction, the signal for CYP3A4 was normalized against the geometric mean of the signal obtained for the housekeeper genes for hepatocytes exposed to test compounds in relation to solvent-treated samples according to the following equation: […]

[4] = Table 4, compounds of the invention
[5] = Table 2, compounds of the invention
[6] = Table 12, compounds of the invention
[7] = pH 7.2, Table 7, compounds of the invention, CACO-2 cells
[8] = pH 7.2, Table 7, compounds of the invention, CACO-2 cells, permeability B-A/permeability A-B
[9] = Table 9, compounds of the invention

T1 sequence (Q16769 29-361): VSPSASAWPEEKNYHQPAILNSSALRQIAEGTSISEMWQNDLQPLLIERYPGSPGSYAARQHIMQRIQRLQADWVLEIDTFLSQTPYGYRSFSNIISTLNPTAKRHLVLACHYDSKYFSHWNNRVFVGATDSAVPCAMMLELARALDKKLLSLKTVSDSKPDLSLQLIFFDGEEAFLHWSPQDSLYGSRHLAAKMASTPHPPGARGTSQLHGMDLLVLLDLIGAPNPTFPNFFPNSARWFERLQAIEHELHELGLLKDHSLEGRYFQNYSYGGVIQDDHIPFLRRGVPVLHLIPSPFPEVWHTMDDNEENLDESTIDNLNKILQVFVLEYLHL
T2 sequence (Q9NXS2 whole entry, species assumed): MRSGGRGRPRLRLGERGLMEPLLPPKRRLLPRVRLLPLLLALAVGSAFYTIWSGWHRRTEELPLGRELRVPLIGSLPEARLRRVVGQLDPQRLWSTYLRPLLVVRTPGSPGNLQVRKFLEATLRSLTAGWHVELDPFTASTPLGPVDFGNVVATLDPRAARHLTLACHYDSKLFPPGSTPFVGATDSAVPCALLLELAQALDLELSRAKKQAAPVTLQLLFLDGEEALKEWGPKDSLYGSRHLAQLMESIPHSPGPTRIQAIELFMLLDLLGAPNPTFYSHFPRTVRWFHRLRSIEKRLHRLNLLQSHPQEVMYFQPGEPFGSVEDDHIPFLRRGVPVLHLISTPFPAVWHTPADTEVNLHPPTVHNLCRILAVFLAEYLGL

Cc1cc(C#N)c(N2CCC(F)(c3nncn3C)CC2)c(-c2cnc3nn(C(F)(F)F)cc3c2)n1 [Example 5]
pIC50 [1, 4]: 7.51
pIC50 (QPCT; [5]): 8.52
pIC50 (QPCTL; [5]): 9.00
pIC50 [2, 4]: 8.22
Mouse Hepatocyte Stability QH (murine hepatocytes; [6]): 16%
Papp A→B [3, 7]: 3.3 ×10⁻⁶ cm/s
efflux ratio [3, 8]: 13
n-fold induction of CYP3A4 at 10 μM (CYP3A4 mRNA; [9]): 2.1 n-fold

Cn1cnnc1C1(F)CCN(c2c(C#N)cc(C(F)(F)F)nc2-c2cnc3nn(C)c(C(F)(F)F)c3c2)CC1 [Example 10]
pIC50 [1, 4]: 6.80
pIC50 (QPCT; [5]): 7.89
pIC50 (QPCTL; [5]): 8.10
pIC50 [2, 4]: 7.31
Mouse Hepatocyte Stability QH (murine hepatocytes; [6]): 53%
Papp A→B [3, 7]: 11 ×10⁻⁶ cm/s
efflux ratio [3, 8]: 6.6
n-fold induction of CYP3A4 at 10 μM (CYP3A4 mRNA; [9]): 5.2 n-fold

Cn1cnnc1C1CCN(c2c(C#N)cccc2-c2ccc3nonc3c2)CC1 [Compound 19, reference compound]
pIC50 ([1]; Table 5, prior art compounds): 5.55
pIC50 (QPCT; Table 3, prior art compounds): 6.97
pIC50 (QPCTL; Table 3, prior art compounds): 6.93
pIC50 ([2]; Table 5, prior art compounds): 6.53
Mouse Hepatocyte Stability QH (murine hepatocytes; Table 13, prior art compounds): 62%
Papp A→B ([3]; Caco-2, pH 7.2): 19 ×10⁻⁶ cm/s
efflux ratio ([3]; Caco-2, pH 7.2): 3.4
n-fold induction of CYP3A4 at 10 μM (CYP3A4 mRNA; Table 10, prior art compounds): 15.8 n-fold

Cn1cnnc1C1(F)CCN(c2c(C#N)cc(C(C)(F)F)nc2-c2cnc3nn(C(F)(F)F)cc3c2)CC1 [Example 3]
pIC50 [1, 4]: 8.00
pIC50 (QPCT; [5]): 8.52
pIC50 (QPCTL; [5]): 8.52
pIC50 [2, 4]: 8.15
Mouse Hepatocyte Stability QH (murine hepatocytes; [6]): <12%
Papp A→B [3, 7]: 11 ×10⁻⁶ cm/s
efflux ratio [3, 8]: 6.4
n-fold induction of CYP3A4 at 10 μM (CYP3A4 mRNA; [9]): 4.2 n-fold

Cn1cnnc1C1(F)CCN(c2c(C#N)cc(C3CC3(F)F)nc2-c2ccnnc2)CC1 (stereo not drawn) [Example 6]
pIC50 [1, 4]: 6.65
pIC50 (QPCT; [5]): 8.22
pIC50 (QPCTL; [5]): 8.70
pIC50 [2, 4]: 7.09
Mouse Hepatocyte Stability QH (murine hepatocytes; [6]): <12%
Papp A→B [3, 7]: 0.6 ×10⁻⁶ cm/s
efflux ratio [3, 8]: 36.1
n-fold induction of CYP3A4 at 10 μM (CYP3A4 mRNA; [9]): 0.6 n-fold

Cn1cnnc1C1(F)CCN(c2c(C#N)cc(C(C)(F)F)nc2-c2cnc3nn(C)c(C(F)(F)F)c3c2)CC1 [Example 9]
pIC50 [1, 4]: 7.08
pIC50 (QPCT; [5]): 8.30
pIC50 (QPCTL; [5]): 8.22
pIC50 [2, 4]: 7.85
Mouse Hepatocyte Stability QH (murine hepatocytes; [6]): 34%
Papp A→B [3, 7]: 14 ×10⁻⁶ cm/s
efflux ratio [3, 8]: 6.4
n-fold induction of CYP3A4 at 10 μM (CYP3A4 mRNA; [9]): 4.2 n-fold

Cc1cc(-c2nc(C3CC3)cc(C#N)c2N2CCC(F)(c3nncn3C)CC2)cnn1 [Example 12]
pIC50 [1, 4]: 6.02
pIC50 (QPCT; [5]): 7.85
pIC50 (QPCTL; [5]): 7.80
pIC50 [2, 4]: 6.84
Mouse Hepatocyte Stability QH (murine hepatocytes; [6]): 21%
Papp A→B [3, 7]: 5.6 ×10⁻⁶ cm/s
efflux ratio [3, 8]: 9.5
n-fold induction of CYP3A4 at 10 μM (CYP3A4 mRNA; [9]): 4.1 n-fold

Cn1cnnc1C1(F)CCN(c2c(C#N)cc(C(F)(F)F)nc2-c2cnc3nn(C(C)(C)C)cc3c2C(F)F)CC1 [Example 15]
pIC50 [1, 4]: 8.52
pIC50 (QPCT; [5]): 8.05
pIC50 (QPCTL; [5]): 7.92
pIC50 [2, 4]: 9.00
Mouse Hepatocyte Stability QH (murine hepatocytes; [6]): <12%
Papp A→B [3, 7]: 7.6 ×10⁻⁶ cm/s
efflux ratio [3, 8]: 10.9
n-fold induction of CYP3A4 at 10 μM (CYP3A4 mRNA; [9]): 14.2 n-fold

Cn1cnnc1C1(F)CCN(c2c(C#N)cc(C3CC3)nc2-c2ccnnc2)CC1 [Example 1]
pIC50 [1, 4]: 6.97
pIC50 (QPCT; [5]): 8.70
pIC50 (QPCTL; [5]): 9.00
pIC50 [2, 4]: 7.82
Mouse Hepatocyte Stability QH (murine hepatocytes; [6]): 49%
Papp A→B [3, 7]: 6.3 ×10⁻⁶ cm/s
efflux ratio [3, 8]: 7
n-fold induction of CYP3A4 at 10 μM (CYP3A4 mRNA; [9]): 1.2 n-fold
